Each structure is given as a SMILES string.

For the assay, the target named is T1, PPARγ (Homo sapiens, UniProt P37231).
T1 construct: made in house
T1 sequence (P37231 1-505): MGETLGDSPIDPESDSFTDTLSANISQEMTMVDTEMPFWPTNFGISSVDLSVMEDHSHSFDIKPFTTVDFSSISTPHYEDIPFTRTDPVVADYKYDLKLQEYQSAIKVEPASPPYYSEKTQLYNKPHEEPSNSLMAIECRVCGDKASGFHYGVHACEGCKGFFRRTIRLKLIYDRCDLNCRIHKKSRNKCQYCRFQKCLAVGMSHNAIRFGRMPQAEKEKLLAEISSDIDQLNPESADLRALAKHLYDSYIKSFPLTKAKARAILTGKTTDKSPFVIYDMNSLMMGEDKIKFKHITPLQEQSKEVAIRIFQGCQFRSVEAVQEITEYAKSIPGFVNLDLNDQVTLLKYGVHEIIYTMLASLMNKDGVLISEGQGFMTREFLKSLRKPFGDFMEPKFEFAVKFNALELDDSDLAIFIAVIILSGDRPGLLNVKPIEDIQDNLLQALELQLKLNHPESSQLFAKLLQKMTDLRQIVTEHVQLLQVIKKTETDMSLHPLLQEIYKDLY
Kind of assay: PPARγ ligand binding assay utilizing [3H]-BRL 49653 as the radioligand (filtration). The following applies: concentration required to reduce by 50% the specific binding of [3H]-BRL 49653. The text has this:
The compounds of the present invention can be evaluated for modulation of the PPARγ receptor using assays such as those described in Jiang, et al., Nature 391:82-86 (1998), Ricote, et al., Nature 391:79-82 (1998) and Lehmann, et al., J. Biol. Chem. 270(12): 12953-12956 (1995). Alternatively, the compounds can be evaluated for their ability to displace radiolabeled BRL 49653 from a PPARγ-GST fusion protein as follows:
PPARγ-GST fusion protein (prepared according to standard procedures), [^3H]-BRL 49653 having 50 Ci/mmol specific activity, Polyfiltronics Unifilter 350 filtration plate and glutathione-Sepharose® beads (from Pharmacia: washed twice with 10× binding buffer in which BSA and DTI can be left out).
Binding buffer (10 mM Tris-HCl, pH 8.0, 50 mM KCl, 10 mM DTT, 0.02% BSA and 0.0 1% NP-40) is added in 80-μL amounts to the wells of the filtration plate. The test compound is then added in 10 μL of DMSO. The PPARγ-GST fusion protein and radiolabeled BRL compound are premixed in binding buffer containing 10 mM DTT and added in 10-μL amounts to the wells of the plate to provide final concentrations of 1 µg/well of PPARγ-GST fusion protein and 10 nM [^3H]-BRL 49653 compound. The plate is incubated for 15 min. Glutathione-agarose bead is added in 50 μL of binding buffer, and the plate is vigorously shaken for one hour. The plate is washed four times with 200 μL/well of binding buffer (without BSA and DTT). The bottom of the plate is sealed and 200 μL/well of scintillation cocktail is added. The top of the plate is then sealed and the radioactivity is determined.
IC50 values are defined as the concentration of test compounds required to reduce by 50% the specific binding of [^3H]-BRL 49653 and are represented by (+)<30 μM; (++)<10 μM; (+++)<1 μM.

`CCCC(=O)c1nc(NS(=O)(=O)c2ccc(Cl)cc2Cl)ccc1Sc1ccc(S(=O)(=O)N2CCCCC2)cc1` [Compound 73, N-{6-Butyryl-5-[4-(piperidine-1-sulfonyl)-phenylsulfanyl]-pyridin-2-yl}-2,4-dichloro-benzenesulfonamide]: the IC50 was less than 1000 nM.
The value for `Cc1cc(NS(=O)(=O)c2ccc(C(F)(F)F)cc2Cl)ncc1Sc1ccc(S(=O)(=O)N2CCOCC2)cc1` [Compound 74, 2-Chloro-N-{4-methyl-5-[4-(morpholine-4-sulfonyl) -phenylsulfanyl]-pyridin-2-yl}-4-trifluoromethyl-benzenesulfonamide] was less than 1000 nM.
Compound `Cc1cc(NS(=O)(=O)c2ccc(Cl)cc2Cl)ncc1Sc1ccc(S(=O)(=O)N2CCOCC2)cc1` [Compound 75, 2,4-Dichloro-N-{4-methyl-5-[4-(morpholine-4-sulfonyl) -phenylsulfanyl]-pyridin-2-yl}-benzenesulfonamide] returned a half-inhibitory concentration (IC50) of less than 1000 nM.
Compound `COC(=O)c1nc(NS(=O)(=O)c2ccc(Cl)cc2Cl)ccc1Sc1ccc(S(=O)(=O)N2CCOCC2)cc1` [Compound 76, 6-(2,4-Dichloro-benzenesulfonylamino)-3-[4-(morpholine-4-sulfonyl)-phenylsulfanyl]-pyridine-2-carboxylic acid methyl ester] had an IC50 of less than 1000 nM.
The value for `Cc1nc(NS(=O)(=O)c2ccc(Cl)cc2Cl)ccc1Sc1ccc(S(=O)(=O)N2CCOCC2)cc1` [Compound 77, 2,4-Dichloro-N-{6-methyl-5-[4-(morpholine-4-sulfonyl) -phenylsulfanyl]-pyridin-2-yl}-benzenesulfonamide] was less than 1000 nM; that for `CCCC(=O)c1nc(NS(=O)(=O)c2ccc(Cl)cc2Cl)ccc1Sc1ccc(S(=O)(=O)N2CCOCC2)cc1` [Compound 78, N-{6-Butyryl-5-[4-(morpholine-4-sulfonyl)-phenylsulfanyl]-pyridin-2-yl}-2,4-dichloro-benzenesulfonamide] was less than 1000 nM; that for `O=C(c1nc(NS(=O)(=O)c2ccc(Cl)cc2Cl)ccc1Sc1ccc(S(=O)(=O)N2CCOCC2)cc1)C1CC1` [Compound 79, 2,4-Dichloro-N-{6-cyclopropanecarbonyl-5-[4-(morpholine-4-sulfonyl)-phenylsulfanyl]-pyridin-2-yl}-benzenesulfonamide] was less than 1000 nM.
In turn, `CC(C)CC(=O)c1nc(NS(=O)(=O)c2ccc(Cl)cc2Cl)ccc1Sc1ccc(S(=O)(=O)N2CCOCC2)cc1` [Compound 80, 2,4-Dichloro-N-{6-(3-methyl-butyryl)-5-[4-(morpholine-4-sulfonyl)-phenylsulfanyl]-pyridin-2-yl}-benzenesulfonamide] displayed an IC50 of less than 1000 nM.
The value for `CCCC(=O)c1nc(NS(=O)(=O)c2ccc(C(F)(F)F)cc2Cl)ccc1Sc1ccc(S(=O)(=O)N2CCCCC2)cc1` [Compound 81, N-{6-Butyryl-5-[4-(piperidine-1-sulfonyl)-phenylsulfanyl]-pyridin-2-yl}-2-chloro-4-trifluoromethyl-benzenesulfonamide] was less than 1000 nM; that for `O=C(c1nc(NS(=O)(=O)c2ccc(Cl)cc2Cl)ccc1Sc1ccc(S(=O)(=O)N2CCCCC2)cc1)C1CC1` [Compound 82, 2,4-Dichloro-N-{6-cyclopropanecarbonyl-5-[4-(piperidine-1-sulfonyl)-phenylsulfanyl]-pyridin-2-yl}-benzenesulfonamide] was less than 1000 nM; that for `CC(C)CC(=O)c1nc(NS(=O)(=O)c2ccc(Cl)cc2Cl)ccc1Sc1ccc(S(=O)(=O)N2CCCCC2)cc1` [Compound 83, 2,4-Dichloro-N-{6-(3-methyl-butyryl)-5-[4-(piperidine-1-sulfonyl)-phenylsulfanyl]-pyridin-2-yl}-benzenesulfonamide] was less than 1000 nM.
For `CCC(=O)c1nc(NS(=O)(=O)c2ccc(Cl)cc2Cl)ccc1Sc1ccc(S(=O)(=O)N2CCCCC2)cc1` [Compound 84, 2,4-Dichloro-N-{5-[4-(piperidine-1-sulfonyl)-phenylsulfanyl]-6-propionyl-pyridin-2-yl}-benzenesulfonamide], the IC50 was less than 1000 nM.
For `CC(C)NC(=O)c1nc(NS(=O)(=O)c2ccc(Cl)cc2Cl)ccc1Sc1ccc(S(=O)(=O)N2CCCCC2)cc1` [Compound 85, 6-(2,4-Dichloro-benzenesulfonylamino)-3-[4-(piperidine-1-sulfonyl)-phenylsulfanyl]-pyridine-2-carboxylic acid isopropylamide], the half-inhibitory concentration (IC50) is less than 1000 nM.
For `CCC(=O)c1nc(NS(=O)(=O)c2ccc(Cl)cc2Cl)ccc1Sc1ccc(S(=O)(=O)N2CCOCC2)cc1` [Compound 86, 2,4-Dichloro-N-{5-[4-(morpholine-4-sulfonyl)-phenylsulfanyl]-6-propionyl-pyridin-2-yl}-benzenesulfonamide], the IC50 is less than 1000 nM.
The compound `CCCC(=O)c1nc(NS(=O)(=O)c2ccc(C(F)(F)F)cc2Cl)ccc1Sc1ccc(S(=O)(=O)N2CCOCC2)cc1` [Compound 87, N-{6-Butyryl-5-[4-(morpholine-4-sulfonyl)-phenylsulfanyl]-pyridin-2-yl}-2-chloro-4-trifluoromethyl-benzenesulfonamide] showed a half-inhibitory concentration (IC50) of less than 1000 nM.
The value for `O=C(c1nc(NS(=O)(=O)c2ccc(C(F)(F)F)cc2Cl)ccc1Sc1ccc(S(=O)(=O)N2CCOCC2)cc1)C1CC1` [Compound 88, 2-Chloro-N-{6-cyclopropanecarbonyl-5-[4-(morpholine-4-sulfonyl)-phenylsulfanyl]-pyridin-2-yl}-4-trifluoromethyl-benzenesulfonamide] was less than 1000 nM.
Turning to `O=C(c1nc(NS(=O)(=O)c2ccc(C(F)(F)F)cc2Cl)ccc1Sc1ccc(S(=O)(=O)N2CCCCC2)cc1)C1CC1` [Compound 89, 2-Chloro-N-{6-cyclopropanecarbonyl-5-[4-(piperidine-1-sulfonyl)-phenylsulfanyl]-pyridin-2-yl}-4-trifluoromethyl-benzenesulfonamide], the IC50 is less than 1000 nM.
`CCCC(=O)c1nc(NS(=O)(=O)c2ccc(Cl)cc2Cl)ccc1Sc1ccc(S(=O)(=O)N2CCCC2)cc1` [Compound 94, N-{6-Butyryl-5-[4-(pyrrolidine-1-sulfonyl)-phenylsulfanyl]-pyridin-2-yl}-2,4-dichloro-benzenesulfonamide] yielded an IC50 of less than 1000 nM.
Then `O=C(c1nc(NS(=O)(=O)c2ccc(Cl)cc2Cl)ccc1Sc1ccc(S(=O)(=O)N2CCCC2)cc1)C1CC1` [Compound 95, 2,4-Dichloro-N-{6-cyclopropanecarbonyl-5-[4-(pyrrolidine-1-sulfonyl)-phenylsulfanyl]-pyridin-2-yl}-benzenesulfonamide], with less than 1000 nM.
`CCC(=O)c1nc(NS(=O)(=O)c2ccc(Cl)cc2Cl)ccc1Sc1ccc(S(=O)(=O)N2CCCC2)cc1` [Compound 96, 2,4-Dichloro-N-{6-propionyl-5-[4-(pyrrolidine-1-sulfonyl) -phenylsulfanyl]-pyridin-2-yl}-benzenesulfonamide] registered a half-maximal inhibitory concentration (IC50) of less than 1000 nM.
`CCCC(=O)c1nc(NS(=O)(=O)c2ccc(C(F)(F)F)cc2Cl)ccc1Sc1ccc(S(=O)(=O)N2CCCC2)cc1` [Compound 97, N-{6-Butyryl-5-[4-(pyrrolidine-1-sulfonyl)-phenylsulfanyl]-pyridin-2-yl}-2-chloro-4-trifluoromethyl-benzenesulfonamide] displayed a half-maximal inhibitory concentration (IC50) of less than 1000 nM.
Then `O=C(c1nc(NS(=O)(=O)c2ccc(C(F)(F)F)cc2Cl)ccc1Sc1ccc(S(=O)(=O)N2CCCC2)cc1)C1CC1` [Compound 98, 2-Chloro-N-{6-cyclopropanecarbonyl-5-[4-(pyrrolidine-1-sulfonyl)-phenylsulfanyl]-pyridin-2-yl}-4-trifluoromethyl-benzenesulfonamide], with less than 1000 nM.
As to `CCCC(=O)c1nc(NS(=O)(=O)c2ccc(C(F)(F)F)cc2Cl)ccc1Sc1ccc(S(=O)(=O)N(CC)CC)cc1` [Compound 99, N-[6-Butyryl-5-(4-diethylsulfamoyl-phenylsulfanyl)-pyridin-2-yl]-2-chloro-4-trifluoromethyl-benzenesulfonamide], the IC50 is less than 1000 nM.

The values are drawn from US7893077B2, “Bisaryl-sulfonamides” (Amgen Inc., priority 2004, dated 2011).
